Experimental data as given in article PMC10187937, “Streptothricin F is a bactericidal antibiotic effective against highly drug-resistant gram-negative bacteria that interacts with the 30S subunit of the 70S ribosome” (PLOS Biology, 2023).
Values after ≈ are worked out from the molar mass of the structure shown. Where two headings read alike, the source gives them in different places.

Assays:
[1] = tested on: T1, Acinetobacter baumannii FDA-CDC 308; assay: microbe, parasite or virus in culture; design: broth microdilution minimal inhibitory concentration against multidrug-resistant clinical isolates
T1 construct: FDA-CDC 308
Description: (§1) Using broth microdilution minimal inhibitory concentration (MIC) testing, we determined the MIC of S-F, S-D, and nourseothricin for a large group of multidrug-resistant CRE. These included strains expressing metallo- and/or serine carbapenemases and the pandrug-resistant, NDM-1–expressing Klebsiella pneumoniae Nevada strain, AR-0663 [18]. For these CRE (n = 39), MIC50 and MIC90 for S-F, S-D, and nourseothricin, respectively, were 2 and 4 (range 1 to 4) μM; 0.25 and 0.5 (range 0.25 to 2) μM; and 0.5 and 1 (range 0.25 to 2) μM. The average MIC was 5.6-fold greater for S-F than for S-D and 4.2-fold greater for S-F than for nourseothricin. […] CRE isolates were from the FDA-CDC Antimicrobial Resistance Isolate Bank (AR-Bank) including the Nevada Strain (AR-0636) and the BIDMC clinical collection sequenced as part of the CRE genomics project. A. baumannii isolates were from the AR-Bank and the Multidrug Resistant Organism Repository and Surveillance Network (MRSN) at the Walter Reed Army Institute of Research (WRAIR). Strains are listed in S3 Table. The single ribosomal operon strain, E. coli SQ110, was from the Coli Genetics Stock Center (Yale University, New Haven, CT) and was originally described by Squire and colleagues.

[2] = tested on: T2, Acinetobacter baumannii FDA-CDC 309; assay: microbe, parasite or virus in culture; design: broth microdilution minimal inhibitory concentration against multidrug-resistant clinical isolates
T2 construct: FDA-CDC 309
Description: as §1

[3] = tested on: T3, Acinetobacter baumannii FDA-CDC 310; assay: microbe, parasite or virus in culture; design: broth microdilution minimal inhibitory concentration against multidrug-resistant clinical isolates
T3 construct: FDA-CDC 310
Description: as §1

[4] = tested on: T4, Acinetobacter baumannii FDA-CDC 311; assay: microbe, parasite or virus in culture; design: broth microdilution minimal inhibitory concentration against multidrug-resistant clinical isolates
T4 construct: FDA-CDC 311
Description: as §1

[5] = tested on: T5, Enterobacter aerogenes FDA-CDC 161; assay: microbe, parasite or virus in culture; design: broth microdilution minimal inhibitory concentration against multidrug-resistant clinical isolates; details: Klebsiella aerogenes, FDACDC161, IMP-4
T5 construct: FDA-CDC 161
Description: as §1

[6] = tested on: T6, Escherichia coli FDA-CDC 118; assay: microbe, parasite or virus in culture; design: broth microdilution minimal inhibitory concentration against multidrug-resistant clinical isolates; details: FDACDC118, NDM
T6 construct: FDA-CDC 118
Description: as §1

[7] = tested on: T7, Escherichia coli FDA-CDC 119; assay: microbe, parasite or virus in culture; design: broth microdilution minimal inhibitory concentration against multidrug-resistant clinical isolates; details: FDACDC119, NDM
T7 construct: FDA-CDC 119
Description: as §1

[8] = tested on: T8, Escherichia coli FDA-CDC 128; assay: microbe, parasite or virus in culture; design: broth microdilution minimal inhibitory concentration against multidrug-resistant clinical isolates
T8 construct: FDA-CDC 128
Description: as §1

[9] = tested on: T9, Escherichia coli FDA-CDC 137; assay: microbe, parasite or virus in culture; design: broth microdilution minimal inhibitory concentration against multidrug-resistant clinical isolates
T9 construct: FDA-CDC 137
Description: as §1

[10] = tested on: T10, Escherichia coli FDA-CDC 149; assay: microbe, parasite or virus in culture; design: broth microdilution minimal inhibitory concentration against multidrug-resistant clinical isolates; details: FDACDC149, NDM
T10 construct: FDA-CDC 149
Description: as §1

[11] = tested on: T11, Klebsiella pneumoniae CDC 636; assay: microbe, parasite or virus in culture; design: broth microdilution minimal inhibitory concentration against multidrug-resistant clinical isolates; details: CDC636, NDM
T11 construct: CDC 636
Description: as §1

[12] = tested on: T12, Klebsiella pneumoniae FDA-CDC 34; assay: microbe, parasite or virus in culture; design: broth microdilution minimal inhibitory concentration against multidrug-resistant clinical isolates
T12 construct: FDA-CDC 34
Description: as §1

[13] = tested on: T13, Enterobacter cloacae BIDMC 8; design: broth microdilution minimal inhibitory concentration against multidrug-resistant clinical isolates; details: KPC-3; inhibitor
T13 construct: BIDMC 8
Description: as §1

[14] = tested on: T14, Enterobacter cloacae FDA-CDC 136; design: broth microdilution minimal inhibitory concentration against multidrug-resistant clinical isolates; details: KPC; inhibitor
T14 construct: FDA-CDC 136
Description: as §1

[15] = tested on: T15, Escherichia coli BIDMC 15; design: broth microdilution minimal inhibitory concentration against multidrug-resistant clinical isolates; details: KPC-2; inhibitor
T15 construct: BIDMC 15
Description: as §1

[16] = tested on: T16, Escherichia coli BIDMC 17; design: broth microdilution minimal inhibitory concentration against multidrug-resistant clinical isolates; details: KPC-2; inhibitor
T16 construct: BIDMC 17
Description: as §1

[17] = tested on: T17, Escherichia coli BIDMC 3; design: broth microdilution minimal inhibitory concentration against multidrug-resistant clinical isolates; details: KPC-2; inhibitor
T17 construct: BIDMC 3
Description: as §1

[18] = tested on: T18, Escherichia coli BIDMC 6; design: broth microdilution minimal inhibitory concentration against multidrug-resistant clinical isolates; details: KPC-2; inhibitor
T18 construct: BIDMC 6
Description: as §1

[19] = tested on: T19, Escherichia coli BIDMC 9; design: broth microdilution minimal inhibitory concentration against multidrug-resistant clinical isolates; details: KPC-2; inhibitor
T19 construct: BIDMC 9
Description: as §1

[20] = tested on: T20, Klebsiella oxytoca FDA-CDC 147; design: broth microdilution minimal inhibitory concentration against multidrug-resistant clinical isolates; details: KPC; inhibitor
T20 construct: FDA-CDC 147
Description: as §1

[21] = tested on: T21, Klebsiella pneumoniae BIDMC 10; design: broth microdilution minimal inhibitory concentration against multidrug-resistant clinical isolates; details: KPC-3; inhibitor
T21 construct: BIDMC 10
Description: as §1

[22] = tested on: T22, Klebsiella pneumoniae BIDMC 11; design: broth microdilution minimal inhibitory concentration against multidrug-resistant clinical isolates; details: KPC-4; inhibitor
T22 construct: BIDMC 11
Description: as §1

[23] = tested on: T23, Klebsiella pneumoniae BIDMC 1; design: broth microdilution minimal inhibitory concentration against multidrug-resistant clinical isolates; details: KPC-3; inhibitor
T23 construct: BIDMC 1
Description: as §1

[24] = tested on: T24, Klebsiella pneumoniae BIDMC 2; design: broth microdilution minimal inhibitory concentration against multidrug-resistant clinical isolates; details: KPC-3; inhibitor
T24 construct: BIDMC 2
Description: as §1

[25] = tested on: T25, Klebsiella pneumoniae BIDMC 4; design: broth microdilution minimal inhibitory concentration against multidrug-resistant clinical isolates; details: KPC-3; inhibitor
T25 construct: BIDMC 4
Description: as §1

[26] = tested on: T26, Klebsiella pneumoniae BIDMC 5; design: broth microdilution minimal inhibitory concentration against multidrug-resistant clinical isolates; details: KPC-3; inhibitor
T26 construct: BIDMC 5
Description: as §1

[27] = tested on: T27, Klebsiella pneumoniae BIDMC 7; design: broth microdilution minimal inhibitory concentration against multidrug-resistant clinical isolates; details: KPC-3; inhibitor
T27 construct: BIDMC 7
Description: as §1

[28] = tested on: T28, Klebsiella pneumoniae FDA-CDC 117; design: broth microdilution minimal inhibitory concentration against multidrug-resistant clinical isolates; details: KPC-3; inhibitor
T28 construct: FDA-CDC 117
Description: as §1

[29] = target: T29, rProtein L28 (50S, near the E-site of the A. baumannii 70S ribosome) (Acinetobacter baumannii, UniProt B7I4T0); assay: cryo-EM structure of complex; assay type: binding; details: 0.1 uM ribosome, 100 uM ligand (not seen at 10 uM); second site, 50S near E-site; presumably nonspecific per authors
T29 construct: gene rpmB; native 50S ribosomal protein within purified 70S ribosome; site near the E-site, contact at H20
T29 sequence (B7I4T0 whole entry): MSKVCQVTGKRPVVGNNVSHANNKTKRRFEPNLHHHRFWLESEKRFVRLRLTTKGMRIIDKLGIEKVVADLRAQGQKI

SMILES: NCCC[C@H](N)CC(=O)NCCC[C@H](N)CC(=O)NCCC[C@H](N)CC(=O)N[C@@H]1[C@H](O)[C@@H](OC(N)=O)[C@@H](CO)O[C@H]1NC1=N[C@@H]2C(=O)NC[C@@H](O)[C@H]2N1 [S-D, streptothricin D]
- MIC ([1]; FDACDC308, OXA-71, read-out: S-D MIC): 0.25 µM (≈ 0.19 µg/mL)
- MIC ([2]; FDACDC309, OXA-23, OXA-82, read-out: S-D MIC): 2 µM (≈ 1.52 µg/mL)
- MIC ([3]; FDACDC310, OXA-23, OXA-82, read-out: S-D MIC): 2 µM (≈ 1.52 µg/mL)
- MIC ([4]; FDACDC311, OXA-23, OXA-82, read-out: S-D MIC): 2 µM (≈ 1.52 µg/mL)
- MIC ([5]; read-out: S-D MIC): 0.5 µM (≈ 0.379 µg/mL)
- MIC ([6]; read-out: S-D MIC): 1 µM (≈ 0.759 µg/mL)
- MIC ([7]; read-out: S-D MIC): 0.5 µM (≈ 0.379 µg/mL)
- MIC ([8]; FDACDC128, NDM-1, read-out: S-D MIC): 1 µM (≈ 0.759 µg/mL)
- MIC ([9]; FDACDC137, NDM-6, read-out: S-D MIC): 0.5 µM (≈ 0.379 µg/mL)
- MIC ([10]; read-out: S-D MIC): 0.5 µM (≈ 0.379 µg/mL)
- MIC ([11]; read-out: S-D MIC): 0.25 µM (≈ 0.19 µg/mL)
- MIC ([12]; FDACDC34, IMP-4, read-out: S-D MIC): 0.25 µM (≈ 0.19 µg/mL)
- S-D MIC [13]: 0.25 µM
- S-D MIC [14]: 0.5 µM
- S-D MIC [15]: 0.5 µM
- S-D MIC [16]: 0.5 µM
- S-D MIC [17]: 0.5 µM
- S-D MIC [18]: 0.5 µM
- S-D MIC [19]: 0.5 µM
- S-D MIC [20]: 0.25 µM
- S-D MIC [21]: 0.25 µM
- S-D MIC [22]: 0.25 µM
- S-D MIC [23]: 0.25 µM
- S-D MIC [24]: 0.25 µM
- S-D MIC [25]: 0.25 µM
- S-D MIC [26]: 0.25 µM
- S-D MIC [27]: 0.25 µM
- S-D MIC [28]: 0.25 µM

SMILES: NCCC[C@H](N)CC(=O)N[C@@H]1[C@H](O)[C@@H](OC(N)=O)[C@@H](CO)O[C@H]1N=C1N[C@@H]2[C@H](O)CNC(=O)[C@H]2N1 [S-F, streptothricin F]
- cryo-EM structure of 70S complex [29]: S-F and S-D overlap at this site, interacting with H20 of rProtein L28
- MIC ([1]; FDACDC308, OXA-71, read-out: S-F MIC): 1 µM (≈ 0.503 µg/mL)
- MIC ([2]; FDACDC309, OXA-23, OXA-82, read-out: S-F MIC): 8 µM (≈ 4.02 µg/mL)
- MIC ([3]; FDACDC310, OXA-23, OXA-82, read-out: S-F MIC): 8 µM (≈ 4.02 µg/mL)
- MIC ([4]; FDACDC311, OXA-23, OXA-82, read-out: S-F MIC): 8 µM (≈ 4.02 µg/mL)
- MIC ([5]; read-out: S-F MIC): 2 µM (≈ 1.01 µg/mL)
- MIC ([6]; read-out: S-F MIC): 4 µM (≈ 2.01 µg/mL)
- MIC ([7]; read-out: S-F MIC): 4 µM (≈ 2.01 µg/mL)
- MIC ([8]; FDACDC128, NDM-1, read-out: S-F MIC): 4 µM (≈ 2.01 µg/mL)
- MIC ([9]; FDACDC137, NDM-6, read-out: S-F MIC): 2 µM (≈ 1.01 µg/mL)
- MIC ([10]; read-out: S-F MIC): 4 µM (≈ 2.01 µg/mL)
- MIC ([11]; read-out: S-F MIC): 1 µM (≈ 0.503 µg/mL)
- MIC ([12]; FDACDC34, IMP-4, read-out: S-F MIC): 2 µM (≈ 1.01 µg/mL)
- S-F MIC [13]: 4 µM
- S-F MIC [14]: 2 µM
- S-F MIC [15]: 2 µM
- S-F MIC [16]: 2 µM
- S-F MIC [17]: 4 µM
- S-F MIC [18]: 2 µM
- S-F MIC [19]: 4 µM
- S-F MIC [20]: 2 µM
- S-F MIC [21]: 2 µM
- S-F MIC [22]: 2 µM
- S-F MIC [23]: 2 µM
- S-F MIC [24]: 4 µM
- S-F MIC [25]: 2 µM
- S-F MIC [26]: 2 µM
- S-F MIC [27]: 2 µM
- S-F MIC [28]: 1 µM
